Measurements: patent US20250186541A1, “DLL3 TARGETING PEPTIDES AND CONSTRUCTS THEREOF” (MARIANA ONCOLOGY INC., priority 2023, published 2025)
Numbered stars: 1 amine (or outer) side, 2 acyl side, 3 side chain; on linkers, the order of the positions; unused ones are H or OH. Bridge positions count the residues as written; N and C are the ends. Square brackets hold non-standard residues; d marks the D form. Peptide text beside a SMILES is read from it. * marks the point of attachment. Ala(piperidin-4-yl) = O=C([C@H](CC1CCN([*:3])CC1)N[*:1])[*:2]; DOTA = O=C(O)CN1CCN(CC(=O)O)CCN(CC(=O)*)CCN(CC(=O)O)CC1; Phe(4-CH2NH2) = NCc1ccc(C[C@H](N)C(=O)O)cc1; 1Nal = N[C@@H](Cc1cccc2ccccc12)C(=O)O; 2Nal = N[C@@H](Cc1ccc2ccccc2c1)C(=O)O; Phe(2-Me) = Cc1ccccc1C[C@H](N)C(=O)O; tBuAla = CC(C)(C)C[C@H](N)C(=O)O; AllylGly = C=CC[C@H](N)C(=O)O; PAF(DOTA) = not defined here; αMeP = C[C@@]1(C(=O)O)CCCN1; NMeS = CN[C@@H](CO)C(=O)O; Ahx = NCCCCCC(=O)O

B1: [177Lu]Lu-Cpd #158 (peptide)
peptide: Ac-[dA]SDC[1Nal][tBuAla][PAF(DOTA)][2Nal]NC[αMeP]FD-NH2
modifications: disulfide 4-10; reading uncertain; also: 177Lu chelated, printed as Ac-(D-Ala)-S-D-C(3)-(1Nal)-(t-Bu-Ala)-[PAF(DOTA)]-(2Nal)-N-C(3)-(aMe-P)-F-D-CONH2; (3)=disulfide; 177Lu chelated

How the values were obtained:
[1] = molecular target: T1, human DLL3 (Homo sapiens, UniProt Q9NYJ7); experiment: Affinity determination by Surface Plasmon Resonance (SPR), Biacore, 1:1 binding model; settings: biotinylated human DLL3 on streptavidin chip, 25° C.; NB = nonbinding
T1 construct: biotin (biotinylated)
T1 sequence (Q9NYJ7 27-618): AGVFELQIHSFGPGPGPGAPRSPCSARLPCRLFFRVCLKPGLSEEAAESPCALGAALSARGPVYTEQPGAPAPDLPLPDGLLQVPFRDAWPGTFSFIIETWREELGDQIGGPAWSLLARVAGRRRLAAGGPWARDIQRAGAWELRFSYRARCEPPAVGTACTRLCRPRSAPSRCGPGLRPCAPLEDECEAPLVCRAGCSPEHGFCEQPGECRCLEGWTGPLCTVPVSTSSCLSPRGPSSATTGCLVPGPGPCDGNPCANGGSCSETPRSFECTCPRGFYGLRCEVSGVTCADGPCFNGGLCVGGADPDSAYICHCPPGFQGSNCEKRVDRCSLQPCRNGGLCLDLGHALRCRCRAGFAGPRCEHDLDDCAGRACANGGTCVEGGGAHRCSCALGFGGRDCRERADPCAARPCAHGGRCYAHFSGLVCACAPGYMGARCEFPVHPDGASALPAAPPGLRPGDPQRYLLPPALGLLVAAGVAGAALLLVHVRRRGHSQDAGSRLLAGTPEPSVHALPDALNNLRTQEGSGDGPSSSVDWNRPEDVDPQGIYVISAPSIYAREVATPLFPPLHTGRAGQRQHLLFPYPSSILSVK
Outline: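 SPR with biotinylated human DLL3 captured on a streptavidin chip, with a reference surface subtracted. Samples were injected at several concentrations at 100 μL/min in phosphate buffer with 137 mM NaCl, 2.7 mM KCl, 0.05% P20 and 2% DMSO. Kinetic and affinity constants came from a 1:1 binding fit.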

[2] = tested on: SHP-77 cells; experiment: Cell binding (total uptake) of [177Lu]Lu-labeled peptide, gamma counter bound fraction; format: cell-based, human; settings: [177Lu]Lu-test peptide, 1 h, 37° C., 1% PBSA
Protocol: (§1) Example 4. Cell Binding, Internalization, and Radiolabeling of Targeting Moieties Polypeptides General Procedure for Radiolabeling of RPTs with [^177Lu]LuCl3
(§2) [^177Lu]LuCl3 was received from venders in HCl solution. For every mCi of [^177Lu]LUCl3 added to the reaction vial (1.5 mL Eppendorf vial), ammonium acetate buffer (0.2 M, pH 4.9, 100 μL, containing 1% w/v ascorbic acid and 6% v/v ethanol) and peptide conjugate (1 nmol) was added. The pH of the solution was determined to be approximately 5 by using pH strips. The reaction vial was incubated at 80° C., 700 RPM for 17-20 minutes. A sample from the reaction was analyzed by RP-HPLC using an Agilent Infinity II 1260 HPLC to determine reaction completion and radiochemical purity. HPLC conditions: Waters XBridge BEH […] Column, 130 Å, 3.5 um, 4.6 mm×250 mm; mobile phase: Solvent A=water (with 0.1% formic acid), solvent B=acetonitrile (with 0.1% formic acid). Gradients: 25-45% B in 10 minutes, 45-65% B in 12 minutes, 65-90% in 6 minutes at a flow rate of 0.5 mL/min. Required amounts of the product was formulated in 1% PBSA for cell studies.
(§3) The study was conducted using SHP-77cells (Table 7) Adherent cell studies: The cells were cultured in appropriate culture media (20 mL) in tissue culture treated T150 flasks at 37° C. and 5% CO2. Adherent cells were detached (60-70% confluent) using 5 mL Versene at 37° C. for 3 min. After confirming the viability using countess and count of detached cells using Trypan blue, the cells were centrifuged at 4° C. for 5 minutes (1,000 rpm). The cell pellet obtained was washed once with PBS and resuspended in 1% PBSA to obtain the desired cell concentration (5-25 million cells/mL).
(§4) Suspension cell studies: The cells were cultured in appropriate culture media (20 mL) in tissue culture treated T150 flasks at 37° C. and 5% CO2. After confirming the viability and count of detached cells using Trypan blue, the cells were centrifuged at 4° C. for 5 minutes (1,000 rpm). The cell pellet obtained was washed once with PBS and resuspended in 1% PBSA to obtain the desired cell concentration (5-25 million cells/mL).
(§5) Cell numbers used for the assay were in the range of 5 million cells/condition −25 million cells/condition.
Total uptake: Cells were incubated with 300 μL (0.8 μCi) of the incubation buffer (containing radiolabeled peptide [^177Lu]Lu-test peptide) for 1 hour at 37 C (Table 8). Post incubation, the cells were pelleted and washed 2 times using cold PBS+1% BSA. The supernatant and washes were combined and counted together as “unbound fraction” in a gamma counter. The cells were then resuspended in 300 μL of 1% PBS+1% BSA and counted in the gamma counter as “bound fraction”.
(§6) SHP-77 cells are human-derived, non-engineered SCLC cells.

[3] = tested on: SHP-77 cells; experiment: Internalization of [177Lu]Lu-labeled peptide after glycine acid wash, gamma counter internalized fraction; format: cell-based, human; settings: [177Lu]Lu-test peptide, 1 h, 37° C., acid wash 50 mM Glycine pH 2.5
Protocol: as §1, §2, §3, §4, §5
Internalization: The resuspended cells in 300 μl of 1% PBSA and counted in the gamma counter as “bound fraction” were collected in 1.5 ml Eppendorf tube and pelleted. The pelleted cells were incubated with 300 μl of 50 mM Glycine pH=2.5 for 3 minutes and then pelleted discarding the supernatant. This process was repeated one more time. The pelleted cells were washed with 300 μl of cold 1% PBSA and then resuspended in 300 μl 0.3M NaOH. This was counted in the gamma counter as “internalized fraction”.
as §6

[4] = molecular target: DLL3 on SHP-77 cells (human) (UniProt Q9NYJ7); experiment: 177Lu-labelled peptide on SHP-77 cells, 1 h 37 C, gamma count of bound fraction

Molecule	Kd [1] [nM]	% Binding [2] [%]	% Internalization (out of bound fraction) [3] [%]	% Binding [4] [%]
CC(=O)N[C@H](C)C(=O)N[C@@H](CO)C(=O)N[C@@H](CC(=O)O)C(=O)N[C@H]1CSSC[C@@H](C(=O)N2CCC[C@@]2(C)C(=O)N[C@@H](Cc2ccccc2)C(=O)N[C@@H](CC(=O)O)C(=O)N[C@H](CCCCNC(=O)CN2CCN(CC(=O)O)CCN(CC(=O)O)CCN(CC(=O)O)CC2)C(N)=O)NC(=O)[C@H](CC(=O)O)NC(=O)[C@H](Cc2ccc3ccccc3c2)NC(=O)[C@H](C)NC(=O)[C@H](CC(C)(C)C)NC(=O)[C@H](Cc2cccc3ccccc23)NC1=O [compound 166, Ac-(D-Ala)-S-D-C(3)-(1Nal)-(t-Bu-Ala)-Ala-(2Nal)-D-C(3)-(aMe-P)-F-D-[D-Lys(DOTA)]-NH2] (Ac-[dA]SDC[1Nal][tBuAla]A[2Nal]DC[αMeP]FD[dK](DOTA)-NH2; disulfide 4-10)	0.049	7	58	
CC(C)(C)C[C@@H]1NC(=O)[C@H](Cc2cccc3ccccc23)NC(=O)[C@@H](NC(=O)[C@H](CC(=O)O)NC(=O)[C@H](CO)NC(=O)CCCCCNC(=O)CN2CCN(CC(=O)O)CCN(CC(=O)O)CCN(CC(=O)O)CC2)CSSC[C@@H](C(=O)N2CCC[C@@]2(C)C(=O)N[C@@H](Cc2ccccc2)C(=O)N[C@@H](CC(=O)O)C(N)=O)NC(=O)[C@H](CC(N)=O)NC(=O)[C@H](Cc2ccc3ccccc3c2)NC(=O)[C@H](CC2CCNCC2)NC1=O [compound 176, DOTA-Ahx-S-D-C(3)-(1Nal)-(t-Bu-Ala)-[3-(4-piperidinyl)-Ala]-(2Nal)-N-C(3)-(aMe-P)-F -D-CONH2] ({DOTA-Ahx}-SDC[1Nal][tBuAla][Ala(piperidin-4-yl)][2Nal]NC[αMeP]FD-NH2; disulfide 3-9)	0.047	6	53	
CC(=O)N[C@@H](CC1CCNCC1)C(=O)N(C)[C@@H](CO)C(=O)N[C@@H](CC(=O)O)C(=O)N[C@H]1CSSC[C@@H](C(=O)N2CCC[C@@]2(C)C(=O)N[C@@H](Cc2ccccc2)C(=O)N[C@@H](CC(=O)O)C(N)=O)NC(=O)[C@H](CC(N)=O)NC(=O)[C@H](Cc2ccc3ccccc3c2)NC(=O)[C@H](Cc2ccc(CNC(=O)CN3CCN(CC(=O)O)CCN(CC(=O)O)CCN(CC(=O)O)CC3)cc2)NC(=O)[C@H](CC(C)(C)C)NC(=O)[C@H](Cc2cccc3ccccc23)NC1=O [compound 191, Ac-[3-(4-piperidinyl)-Ala]-(NMe-Ser)-D-C(3)-(1Nal)-(t-Bu-Ala)-[PAF(DOTA)]-(2Nal)-N-C(3)-(aMe-P)-F-D-CONH2] (Ac-[Ala(piperidin-4-yl)][NMeS]DC[1Nal][tBuAla][Phe(4-CH2NH2)](DOTA)[2Nal]NC[αMeP]FD-NH2; disulfide 4-10)	0.21	10	48	
CC(=O)N[C@@H](CC1CCNCC1)C(=O)N(C)[C@@H](CO)C(=O)N[C@@H](CC(N)=O)C(=O)N[C@H]1CSSC[C@@H](C(=O)N2CCC[C@@]2(C)C(=O)N[C@@H](Cc2ccccc2)C(=O)N[C@@H](CC(=O)O)C(N)=O)NC(=O)[C@H](CC(N)=O)NC(=O)[C@H](Cc2ccc3ccccc3c2)NC(=O)[C@H](Cc2ccc(CNC(=O)CN3CCN(CC(=O)O)CCN(CC(=O)O)CCN(CC(=O)O)CC3)cc2)NC(=O)[C@H](CC(C)(C)C)NC(=O)[C@H](Cc2cccc3ccccc23)NC1=O [compound 192, Ac-[3-(4-piperidinyl)-Ala]-(NMe-Ser)-N-C(3)-(1Nal)-(t-Bu-Ala)-[PAF(DOTA)]-(2Nal)-D-C(3)-(aMe-P)-F-D-CONH2] (Ac-[Ala(piperidin-4-yl)][NMeS]NC[1Nal][tBuAla][Phe(4-CH2NH2)](DOTA)[2Nal]NC[αMeP]FD-NH2; disulfide 4-10)	0.27	9	45	
CC(=O)N[C@H](C)C(=O)N(C)[C@@H](CO)C(=O)N[C@@H](CC(=O)O)C(=O)N[C@H]1C/C=C/C[C@@H](C(=O)N2CCC[C@@]2(C)C(=O)N[C@@H](Cc2ccccc2)C(=O)N[C@@H](CC(=O)O)C(N)=O)NC(=O)[C@H](CC(N)=O)NC(=O)[C@H](Cc2ccc3ccccc3c2)NC(=O)[C@H](Cc2ccc(CNC(=O)CN3CCN(CC(=O)O)CCN(CC(=O)O)CCN(CC(=O)O)CC3)cc2)NC(=O)[C@H](CC(C)(C)C)NC(=O)[C@H](Cc2cccc3ccccc23)NC1=O [compound 195, Ac-(D-Ala)-(NMe-Ser)-D-AllyG(4)-(1Nal)-(t-Bu-Ala)-[PAF(DOTA)]-(2Nal)-N-AllyG(4)-(aMe-P)-F-D-CONH2] (Ac-[dA][NMeS]D[AllylGly][1Nal][tBuAla][Phe(4-CH2NH2)](DOTA)[2Nal]N[AllylGly][αMeP]FD-NH2; staple (E) 4-10)	0.63	7	43	
CC(=O)N[C@@H](CC1CCNCC1)C(=O)N[C@@H](CO)C(=O)N[C@@H](CC(=O)O)C(=O)N[C@H]1CC=CC[C@@H](C(=O)N2CCC[C@@]2(C)C(=O)N[C@@H](Cc2ccccc2)C(=O)N[C@@H](CC(=O)O)C(N)=O)NC(=O)[C@H](CC(N)=O)NC(=O)[C@H](Cc2ccc3ccccc3c2)NC(=O)[C@H](Cc2ccc(CNC(=O)CN3CCN(CC(=O)O)CCN(CC(=O)O)CCN(CC(=O)O)CC3)cc2)NC(=O)[C@H](CC(C)(C)C)NC(=O)[C@H](Cc2cccc3ccccc23)NC1=O [compound 200, Ac-[3-(4-piperidinyl)-Ala]-S-D-AllyG(4)-(1Nal)-(t-Bu-Ala)-[PAF(DOTA)]-(2Nal)-N-AllyG(4)-(aMe-P)-F-D-CONH2] (Ac-[Ala(piperidin-4-yl)]SD[AllylGly][1Nal][tBuAla][Phe(4-CH2NH2)](DOTA)[2Nal]N[AllylGly][αMeP]FD-NH2; staple 4-10)	0.18	6	46	
B1				25
{DOTA}-[dA]SDC[1Nal][tBuAla]Q[2Nal]NC[αMeP][Phe(2-Me)]D-NH2 (disulfide 4-10; also: 177Lu chelated) [[177Lu]Lu-Cpd #154]				10
